Patent US20240076284A1, “NEW COMPOUNDS AND METHODS” (BENEVOLENTAI BIO LIMITED, priority 2020, published 2024)

Key:
[1] = biological target: T1, Ba/F3 cells expressing BCR-ABL (Homo sapiens, UniProt P00519); assay: Ba/F3 CellTiter-Glo Assay; type: cell-based; details: 48 h incubation, CellTiter-Glo luminescence
T1 construct: BCR (fusion partner, N-terminal portion of BCR); host or cells: Ba/F3 (murine pro-B cells); the other entry of the earlier key: BCR (P11274, Breakpoint cluster region protein)
T1 sequence (P00519 229-512 limits assumed): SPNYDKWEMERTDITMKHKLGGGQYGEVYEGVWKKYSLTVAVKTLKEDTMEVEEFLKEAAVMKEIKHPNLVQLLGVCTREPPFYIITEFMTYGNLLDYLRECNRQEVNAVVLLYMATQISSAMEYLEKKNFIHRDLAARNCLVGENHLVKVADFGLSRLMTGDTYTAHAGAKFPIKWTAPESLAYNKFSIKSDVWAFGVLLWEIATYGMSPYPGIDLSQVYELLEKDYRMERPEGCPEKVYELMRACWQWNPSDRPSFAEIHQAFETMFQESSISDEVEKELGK
Method: The CellTiter-Glo luminescent cell viability assay is a homogeneous method of determining the number of viable cells in culture based on quantification of the ATP present. Briefly, IL-3 dependent Ba/F3 cells are modified to express BCR-ABL. Activity of the transformed kinase overrides IL-3 dependency for cellular proliferation and survival. […] In this assay Ba/F3 cells expressing BCR-ABL (Advanced Cellular Dynamics) or parental Ba/F3 (control) cells were prepared at 5×10^4/mL in RPMI 1640 containing 10% FBS, 1×Glutamax and 750 ng/mL puromycin. Test compounds were dispensed into 384 well plates using the Tecan D300e at a top final assay concentration of 10 μM with dosing normalised to 0.1% DMSO in […]. 50 μL cells were added to each well of the prepared 384 well plates and the plates spun at 1000 rpm for 1 min prior to incubation at 37° C., 5% CO2 for 48 h. After 48 h 15 μL CellTiter-Glo reagent was added to each well in the plate. Following a 60 min incubation at rt luminescence was read on the Pherastar FS reader.

[2] = Human microsomal stability; type: in vitro ADME; details: human microsomes, first value of cell; NADPH, 37° C., up to 40 min
Method: (§1) This assay measures the metabolic stability of a given compound and predicts intrinsic liver clearance for various species. A quench plate is initially prepared which contains 400 μL MeCN and 25 ng/mL of internal standard. An aliquot of microsomes is defrosted and subsequently diluted with buffer. A solution of NADPH is made up fresh just before initialising the assay. 445 μL of microsome solution is added to the desired compound (5 μL in 10 μM DMSO) and the resulting solution mixed. The reaction is initiated by the addition of 50 μL of NADPH, a T0 sample is removed before the addition and quenched. The sample plate is kept at a constant 37° C. during the incubation. At pre-determined timepoints (2.5, 5, 10, 20 and 40 min) the incubation is mixed and 22.5 μL samples are transferred to quench plates. After completion of the time course, the quench plates are sealed and shaken for a minimum of 5 min, before centrifugation at 4000 rpm for 5 min. The supernatant is then subsequently transferred to a fresh plate and diluted 1:3 with MeOH/H2O. The plates are then heat sealed and analysed by a Water Acquity UPLC and a Waters TQ-S mass spectrometer. Waters MassLynx software is used for analysis using an MRM transition that has been previously generated from prior optimisation. After acquiring the data on the system the chromatograms are processed and checked using TargetLynx XS software and the raw data output is copied into a microsomal stability workbook. The workbook automatically populates and derives the CLint, t1/2 and scales the CLint values to generate Eh and predicted CL values. The analyst has the final workbook quality checked before the experiment is signed off.

[3] = Rat microsomal stability; type: in vitro ADME; details: rat microsomes, second value of cell; NADPH, 37° C., up to 40 min
Method: as §1

[4] = biological target: T2, MDR1 (Homo sapiens, UniProt P08183); assay: MDR1-MDCK effective efflux ratio; type: in vitro ADME; details: MDR1-MDCK relative to wild-type MDCK, 1 μM, 60 minutes, pH 7.4
T2 construct: expressed in transfected cells; host or cells: MDCK (canine kidney) cells
T2 sequence (P08183 whole entry, species assumed): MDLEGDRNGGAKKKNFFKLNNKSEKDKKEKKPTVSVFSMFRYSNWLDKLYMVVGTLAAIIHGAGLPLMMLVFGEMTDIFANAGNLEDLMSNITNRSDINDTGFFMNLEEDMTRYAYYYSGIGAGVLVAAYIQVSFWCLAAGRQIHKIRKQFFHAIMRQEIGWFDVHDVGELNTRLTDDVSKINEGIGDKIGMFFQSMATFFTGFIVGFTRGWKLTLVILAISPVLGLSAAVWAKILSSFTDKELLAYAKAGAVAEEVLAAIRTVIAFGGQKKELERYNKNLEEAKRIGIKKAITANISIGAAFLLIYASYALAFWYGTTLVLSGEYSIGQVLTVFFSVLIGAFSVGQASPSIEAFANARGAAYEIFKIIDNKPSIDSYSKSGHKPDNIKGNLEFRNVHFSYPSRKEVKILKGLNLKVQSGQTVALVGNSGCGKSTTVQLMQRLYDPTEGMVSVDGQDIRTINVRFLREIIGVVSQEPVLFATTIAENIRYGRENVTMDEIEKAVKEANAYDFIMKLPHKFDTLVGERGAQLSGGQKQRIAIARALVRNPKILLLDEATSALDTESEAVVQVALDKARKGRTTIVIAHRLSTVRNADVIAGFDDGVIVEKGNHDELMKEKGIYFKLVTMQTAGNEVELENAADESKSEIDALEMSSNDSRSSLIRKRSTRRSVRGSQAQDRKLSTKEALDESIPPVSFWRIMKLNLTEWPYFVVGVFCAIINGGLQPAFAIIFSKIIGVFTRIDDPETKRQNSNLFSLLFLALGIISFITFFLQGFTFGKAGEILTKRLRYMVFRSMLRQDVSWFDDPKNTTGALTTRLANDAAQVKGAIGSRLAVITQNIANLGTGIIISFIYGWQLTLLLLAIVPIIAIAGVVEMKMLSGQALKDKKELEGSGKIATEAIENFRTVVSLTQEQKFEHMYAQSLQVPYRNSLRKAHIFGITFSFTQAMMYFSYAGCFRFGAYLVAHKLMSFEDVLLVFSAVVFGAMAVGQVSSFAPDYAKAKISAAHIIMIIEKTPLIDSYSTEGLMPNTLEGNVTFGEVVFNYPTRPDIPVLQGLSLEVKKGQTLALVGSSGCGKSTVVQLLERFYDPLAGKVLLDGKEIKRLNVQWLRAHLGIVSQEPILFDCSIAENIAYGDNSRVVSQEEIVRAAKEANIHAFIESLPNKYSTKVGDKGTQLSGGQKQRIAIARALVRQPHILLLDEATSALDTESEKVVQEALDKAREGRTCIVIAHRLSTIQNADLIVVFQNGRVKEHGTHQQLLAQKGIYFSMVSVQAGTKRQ
Method: (§2) Wild-type MDCK, MDR1-MDCK and BCRP-MDCK cells were seeded into 24 well Transwell plates and cultured for 3 days to form monolayers. Test compound were prepared at 1 μM in Hanks' Balanced Salt Solution containing 25 mM HEPES and loaded into the donor compartments of Transwell plates bearing the cell monolayers (pH 7.4 for both donor and receiver compartments). Lucifer Yellow was added to the apical buffer in all wells to assess integrity of the cell monolayer. Duplicate wells were prepared and incubated at 37° C. in a CO2 incubator. Samples were removed at time zero and 60 minutes and test compound analysed by LC-MS/MS. Concentrations of Lucifer Yellow in the samples was measured using a fluorescence plate reader. The apparent permeability (Papp) values of test compound was determined for both the apical to basal (A>B) and basal to apical (B>A) permeation and the efflux ratio (B>A: A>B) determined in each cell line. The effective efflux ratio was determined from the ratio of either MDR1-MDCK cells or BCRP-MDCK cells relative to the ratio observed in wild-type cells. A higher value represent a better substrate for the efflux mechanism, which is less preferable.

[5] = biological target: T3, BCRP (Homo sapiens, UniProt Q9UNQ0); assay: BCRP-MDCK effective efflux ratio; type: in vitro ADME; details: BCRP-MDCK relative to wild-type MDCK, 1 μM, 60 minutes, pH 7.4
T3 construct: expressed in transfected cells; host or cells: MDCK (canine kidney) cells
T3 sequence (Q9UNQ0 1-655): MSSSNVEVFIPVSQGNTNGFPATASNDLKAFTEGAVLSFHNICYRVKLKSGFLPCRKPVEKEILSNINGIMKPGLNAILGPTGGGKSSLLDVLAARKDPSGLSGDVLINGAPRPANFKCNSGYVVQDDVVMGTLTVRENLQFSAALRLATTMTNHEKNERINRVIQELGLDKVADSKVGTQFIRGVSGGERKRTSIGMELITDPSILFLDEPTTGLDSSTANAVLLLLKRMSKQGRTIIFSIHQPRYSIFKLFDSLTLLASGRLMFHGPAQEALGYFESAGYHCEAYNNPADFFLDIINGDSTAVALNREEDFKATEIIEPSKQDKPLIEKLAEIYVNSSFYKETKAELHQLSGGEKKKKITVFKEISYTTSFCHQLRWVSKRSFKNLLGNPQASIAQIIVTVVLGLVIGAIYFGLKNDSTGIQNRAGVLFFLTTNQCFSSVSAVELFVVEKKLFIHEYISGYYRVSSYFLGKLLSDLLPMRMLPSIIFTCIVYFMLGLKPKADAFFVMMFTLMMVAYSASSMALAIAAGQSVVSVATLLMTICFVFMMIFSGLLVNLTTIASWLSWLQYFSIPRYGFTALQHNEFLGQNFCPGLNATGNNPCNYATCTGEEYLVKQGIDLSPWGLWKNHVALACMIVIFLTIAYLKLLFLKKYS
Method: as §2

IC50 [1]	Microsomal stability (human/rat) Eh [2]	Microsomal stability (human/rat) Eh [3]	MDCK MDR1 EER [4]	MDCK BCRP EER [5]	Structure (SMILES)
0.04 µM	0.56	0.67	2.9	1.5	Cc1ccc(C(=O)Nc2cc(C(F)(F)F)cnn2)cc1-n1cc(-c2cccnc2)cn1 [Example 2, 4-Methyl-3-[4-(3-pyridyl)pyrazol-1-yl]-N-[5-(trifluoromethyl)pyridazin-3-yl]benzamide]
0.072 µM	< 0.44	0.60	1.2	1.3	Cc1ccc(C(=O)Nc2cc(C(F)(F)F)ccn2)cc1-n1cc(-c2cnn(C)c2C)cn1 [Example 4, 3-[4-(1,5-Dimethylpyrazol-4-yl)pyrazol-1-yl]-4-methyl-N-[4-(trifluoromethyl)-2-pyridyl]benzamide]
	0.96	0.99	6.5	1.8	Cc1ccc(C(=O)Nc2cc(CN3CCOCC3)cc(C(F)(F)F)c2)cc1-n1cc(-c2cccnc2)cn1 [Comparative example 2, 4-Methyl-N-[3-(morpholinomethyl)-5-(trifluoromethyl)phenyl]-3-[4-(3-pyridyl)pyrazol-1-yl]benzamide, reference compound]
	0.81	0.93			Cc1ccc(C(=O)Nc2cc(CN3CCCC3)cc(C(F)(F)F)c2)cc1-n1cc(-c2cccnc2)cn1 [Comparative example 1, 4-Methyl-3-[4-(3-pyridyl)pyrazol-1-yl]-N-[3-(pyrrolidin-1-ylmethyl)-5-(trifluoromethyl)phenyl]benzamide, reference compound]
0.029 µM			1.6	1.1	Cc1ccc(C(=O)Nc2cc(C(F)(F)F)ccn2)cc1-n1cc(-c2cncc(F)c2)cn1 [Example 8, 3-[4-(5-Fluoropyridin-3-yl)-1H-pyrazol-1-yl]-4-methyl-N-[4-(trifluoromethyl)pyridin-2-yl]benzamide]
			15.8	5.0	Cc1ccc(C(=O)Nc2cc(C(F)(F)F)c(CN3CCN(C)CC3)cn2)cc1-n1cc(-c2cccnc2)cn1 [compound 6, 4-Methyl-N-[5-[(4-methylpiperazin-1-yl)methyl]-4-(trifluoromethyl)-2-pyridyl]-3-[4-(3-pyridyl)pyrazol-1-yl]benzamide, reference compound]
			4.3	2.1	Cc1ccc(C(=O)Nc2ccc(CN3CCN(C)CC3)c(C(F)(F)F)c2)cc1-n1cc(-c2cnc(N)nc2)nn1 [compound 5, 3-[4-(2-aminopyrimidin-5-yl)triazol-1-yl]-4-methyl-N-[4-[(4-methylpiperazin-1-yl)methyl]-3-(trifluoromethyl)phenyl]benzamide, reference compound]
0.018 µM	0.70	0.65			Cc1ccc(C(=O)Nc2cc(C(F)(F)F)cc(C#N)n2)cc1-n1cc(-c2cccnc2)cn1 [Example 10, N-[6-cyano-4-(trifluoromethyl)pyridin-2-yl]-4-methyl-3-[4-(pyridin-3-yl)-1H-pyrazol-1-yl]benzamide]
0.028 µM			1.2	1.1	COc1cncc(-c2cnn(-c3cc(C(=O)Nc4cc(C(F)(F)F)ccn4)ccc3C)c2)c1 [Example 9, 3-[4-(5-methoxypyridin-3-yl)-1H-pyrazol-1-yl]-4-methyl-N-[4-(trifluoromethyl)pyridin-2-yl]benzamide]
2.71 µM					Cc1ccc(C(=O)Nc2cc(C(F)(F)F)ccn2)cc1-n1ccc(-c2cccnc2)n1 [Comparative example 4, 4-Methyl-3-[3-(3-pyridyl)pyrazol-1-yl]-N-[4-(trifluoromethyl)-2-pyridyl]benzamide, reference compound]
0.032 µM			1.2	0.8	Cc1cncc(-c2cnn(-c3cc(C(=O)Nc4cc(C(F)(F)F)ccn4)ccc3C)c2)c1 [Example 7]
0.025 µM	0.56	0.44	1.0	1.0	Cc1ccc(C(=O)Nc2cc(C(F)(F)F)ccn2)cc1-n1cc(-c2cncnc2)cn1 [Example 3, 4-Methyl-3-(4-pyrimidin-5-ylpyrazol-1-yl)-N-[4-(trifluoromethyl)-2-pyridyl]benzamide]
0.054 µM			1.1	1.0	CNc1ncc(-c2cnn(-c3cc(C(=O)Nc4cc(C(F)(F)F)ccn4)ccc3C)c2)cn1 [Example 5, 4-Methyl-3-[4-[2-(methylamino)pyrimidin-5-yl]pyrazol-1-yl]-N-[4-(trifluoromethyl)-2-pyridyl]benzamide]
0.083 µM					Cc1ccc(C(=O)Nc2cc(C(F)(F)F)ccn2)cc1-n1cc(-c2cncc(N3CCN(C)CC3)c2)cn1 [Example 6, 4-Methyl-3-[4-[5-(4-methylpiperazin-1-yl)-3-pyridyl]pyrazol-1-yl]-N-[4-(trifluoromethyl)-2-pyridyl]benzamide]
			9.8	8.5	Cc1ccc(C(=O)Nc2cc(C(F)(F)F)cnn2)cc1-n1cc(-c2cccnc2)nn1 [compound 3, 4-Methyl-3-[4-(3-pyridyl)triazol-1-yl]-N-[5-(trifluoromethyl)pyridazin-3-yl]benzamide, reference compound]
